Experiment in all cases: In vitro antibacterial activity, two-fold agar-plate dilution method
Holding throughout (type): cell-based

The subject of one assay is Pr. mirabilis 18. As to conditions: Proteus mirabilis, HI-agar, 37° C., 20 hours, 10^6 viable cells per ml. The protocol:
(§1) In vitro antibacterial activity was determined by the two-fold agar-plate dilution method as described below.
(§2) One loopful of an overnight culture of each test strain in Trypticase-soy broth (10^6 viable cells per ml.) was streaked on heart infusion agar (HI-agar) containing graded concentrations of antibiotics, and the minimum inhibitory concentration (MIC) was expressed in terms of μg/ml after incubation at 37° C. for 20 hours.

A further assay concerns Kl. pneumoniae 20. Conditions: Klebsiella pneumoniae, HI-agar, 37° C., 20 hours, 10^6 viable cells per ml. The protocol: as §1, §2
Another assay has as its system Pr. vulgaris 2. Conditions: Proteus vulgaris, HI-agar, 37° C., 20 hours, 10^6 viable cells per ml. The method, then: as §1, §2
The subject of the next assay is E. coli 31. As to conditions: Escherichia coli, HI-agar, 37° C., 20 hours, 10^6 viable cells per ml. The protocol:
as §1, §2

In brackets after ≈: the same amount, converted by molar mass.

Among the data in US4234724A, “Cephalosporin analogues and processes for the preparation thereof” (Fujisawa Pharmaceutical Company, Limited, priority 1977, dated 1980) are MIC values, retold here.

As usually defined, the MIC is the lowest concentration that inhibits growth of the organism.

With `CCON=C(C(=O)NC1C(=O)N2C(C(=O)O)=CCOC12)c1csc(N)n1` (stereo not drawn) [(2), 7β-[2-Ethoxyimino-2-(2-aminothiazol-4-yl)acetamido]-1-oxadethia-3-cephem-4-carboxylic acid (syn isomer)], the MIC came to 0.05 µg/mL (≈ 0.131 µM) against Pr. mirabilis 18, 0.025 µg/mL (≈ 0.0656 µM) with Kl. pneumoniae 20, 0.05 µg/mL (≈ 0.131 µM) with Pr. vulgaris 2 and 0.05 µg/mL (≈ 0.131 µM) in the assay with E. coli 31.

For `CON=C(C(=O)NC1C(=O)N2C(C(=O)O)=CCOC12)c1csc(N)n1` (stereo not drawn) [(1), 7β-[2-Methoxyimino-2-(2-aminothiazol-4-yl)acetamid]-1-oxadethia-3-cephem-4-carboxylic acid (syn isomer)], the MIC was found to be 0.05 µg/mL (≈ 0.136 µM) with Pr. mirabilis 18, 0.1 µg/mL (≈ 0.272 µM) in the assay on Kl. pneumoniae 20, 0.2 µg/mL (≈ 0.544 µM) in the assay with Pr. vulgaris 2 and 0.05 µg/mL (≈ 0.136 µM) in the assay on E. coli 31.

Consider `CON=C(C(=O)NC1C(=O)N2C(C(=O)O)=CCOC12)c1nsc(N)n1` (stereo not drawn) [(4), 7β-[2-Methoxyimino-2-(5-amino-1,2,4-thiadiazol-3-yl)acetamido]-1-oxadethia-3-cephem-4-carboxylic acid (syn isomer)], for which the MIC turned out to be 0.1 µg/mL (≈ 0.271 µM) against Pr. mirabilis 18, 0.05 µg/mL (≈ 0.136 µM) against Kl. pneumoniae 20, 0.1 µg/mL (≈ 0.271 µM) against Pr. vulgaris 2 and 0.025 µg/mL (≈ 0.0679 µM) in the assay with E. coli 31.

For `CC(C)ON=C(C(=O)NC1C(=O)N2C(C(=O)O)=CCOC12)c1csc(N)n1` (stereo not drawn) [(3), 7β-[2-Isopropoxyimino-2-(2-aminothiazol-4-yl)acetamido]-1-oxadethia-3-cephem-4-carboxylic acid (syn isomer)], the MIC against Pr. mirabilis 18 came to 0.1 µg/mL (≈ 0.253 µM); in the assay on Kl. pneumoniae 20 it was 0.05 µg/mL (≈ 0.126 µM); in the assay on Pr. vulgaris 2 it was 0.1 µg/mL (≈ 0.253 µM); against E. coli 31, 0.2 µg/mL (≈ 0.506 µM).

In the case of `CON=C(C(=O)NC1C(=O)N2C(C(=O)O)=CCOC12)c1nccc(N)n1` (stereo not drawn) [(5), 7β-[2-Methoxyimino-2-(4-aminopyrimidin-2-yl)acetamido]-1-oxadethia-3-cephem-4-carboxylic acid (syn isomer)], the MIC against Pr. mirabilis 18 came to 0.05 µg/mL (≈ 0.138 µM); in the assay with Kl. pneumoniae 20, 0.05 µg/mL (≈ 0.138 µM); against Pr. vulgaris 2 it was 0.1 µg/mL (≈ 0.276 µM); in the assay with E. coli 31, 0.025 µg/mL (≈ 0.069 µM).
